Assay results published in USRE38117E1, “Trioxane dimer compound having antiproliferative and antitumor activities” (Hauser, Inc., priority 1995, dated 2003).
Read-outs that look alike come from different tables or passages of the source.

Legend:
Assay type in all cases: cell-based
RPMI-8226 = assay: NCI 60 cell line screen (SRB), Leukemia; details: RPMI-8226 (Leukemia)
HL-60(TB) = assay: NCI 60 cell line screen (SRB), Leukemia
COLO 205 = assay: NCI 60 cell line screen (SRB), Colon Cancer; details: COLO 205 (Colon Cancer)
UACC-257 = assay: NCI 60 cell line screen (SRB), Melanoma; details: UACC-257 (Melanoma)
ACHN = assay: NCI 60 cell line screen (SRB), Renal Cancer
SF-539 = assay: NCI 60 cell line screen (SRB), CNS Cancer; details: SF-539 (CNS Cancer)
NCI-H322M = assay: NCI 60 cell line screen (SRB), Non-Small Cell Lung Cancer
SN12C = assay: NCI 60 cell line screen (SRB), Renal Cancer
MOLT-4 = assay: NCI 60 cell line screen (SRB), Leukemia; details: for Log10GI50 / Log10LC50 / Log10TGI: MOLT-4 (Leukemia)
HT29 = assay: NCI 60 cell line screen (SRB), Colon Cancer
SW-620 = assay: NCI 60 cell line screen (SRB), Colon Cancer; details: SW-620 (Colon Cancer)
BT-549 = assay: NCI 60 cell line screen (SRB), Breast Cancer; details: BT-549 (Breast Cancer)
NCI-H460 = assay: NCI 60 cell line screen (SRB), Non-Small Cell Lung Cancer
SK-MEL-2 = assay: NCI 60 cell line screen (SRB), Melanoma; details: SK-MEL-2 (Melanoma)
SNB-19 = assay: NCI 60 cell line screen (SRB), CNS Cancer; details: SNB-19 (CNS Cancer)
MALME-3M = assay: NCI 60 cell line screen (SRB), Melanoma; details: MALME-3M (Melanoma)
OVCAR-5 = assay: NCI 60 cell line screen (SRB), Ovarian Cancer; details: OVCAR-5 (Ovarian Cancer)
U251 = assay: NCI 60 cell line screen (SRB), CNS Cancer
OVCAR-8 = assay: NCI 60 cell line screen (SRB), Ovarian Cancer; details: OVCAR-8 (Ovarian Cancer)
IGROVI = assay: NCI 60 cell line screen (SRB), Ovarian Cancer
SF-295 = assay: NCI 60 cell line screen (SRB), CNS Cancer; details: SF-295 (CNS Cancer)
HS 578T = assay: NCI 60 cell line screen (SRB), Breast Cancer; details: HS 578T (Breast Cancer)
SK-OV-3 = assay: NCI 60 cell line screen (SRB), Ovarian Cancer; details: SK-OV-3 (Ovarian Cancer)
NCI-H226 = assay: NCI 60 cell line screen (SRB), Non-Small Cell Lung Cancer
[1] = system: murine keratinocyte cell line PE; assay: Growth inhibition of PE cells (MTT assay); details: murine keratinocytes, FIGS. 1-9
Description: To determine the inhibitory effect of the trioxane dimers of the present invention on cell proliferation, screening assays were performed on a murine keratinocyte cell line PE. […] PE cell culture medium consisted of Eagle's minimal essential medium without calcium chloride (Whittaker Bioproducts, Walkersville, Ma.) supplemented with 8% chelexed fetal calf serum and 1% antibiotic-antimycotic (Gibco BRL) and the addition of CaCl2 to 0.05 mM Ca^++. […] (St. Louis, Mo.), and TPA was supplied by L. C. Services (Woburn, Ma.). L-[^14C]ornithine ([…]) was from Amersham/Searle Corp. (Arlington Heights, Ill.). Chemical solvents used in all assays of biological activity were of the highest grade commercially available. Growth Inhibition. […] A mitochondrial dehydrogenase reduces MTT to a blue formazan product with an absorbance maximum of 505 nm in DMSO; the number of viable cells can thus be determined spectrophotometrically. PE cells were seeded at a density of 5,000 cells/well in 50 μL of medium into 96-well microtiter plates. […] The plates were fed once at 48 h, with the readdition of the vitamin D3 analogs at this time. […] After 4 h, the MTT was removed and DMSO added to dissolve the blue formazan dye. Using a microtiter plate reader, the […] was then determined and cell number calculated from blank-subtracted absorbance values.

SNB-75 = assay: NCI 60 cell line screen (SRB), CNS Cancer; details: SNB-75 (CNS Cancer)
60 cell line panel = assay: NCI 60 cell line screen, values over the whole panel; details: mean value over the cell line panel

SMILES: CC(=O)O[C@H]1C(=O)[C@@]2(C)[C@H]([C@H](OC(=O)c3ccccc3)[C@]3(O)C[C@H](OC(=O)[C@H](O)[C@@H](NC(=O)c4ccccc4)c4ccccc4)C(C)=C1C3(C)C)[C@]1(OC(C)=O)CO[C@@H]1C[C@@H]2O [Paclitaxel, paclitaxel, reference compound]
- Log10GI50 (RPMI-8226): <−13.00 M
- Log10LC50 (RPMI-8226): >−4.00 M
- Log10TGI (RPMI-8226): >−4.00 M
- Log10GI50 (HL-60(TB); HL-60(TB) (Leukemia)): −11.57 M
- Log10LC50 (HL-60(TB); HL-60(TB) (Leukemia)): >−4.53 M
- Log10TGI (HL-60(TB); HL-60(TB) (Leukemia)): −4.53 M
- Log10GI50 (COLO 205): −11.07 M
- Log10LC50 (COLO 205): >−4.41 M
- Log10GI50 (UACC-257): −10.30 M
- Log10LC50 (UACC-257): −4.03 M
- Log10TGI (UACC-257): −4.52 M
- Log10LC50 (ACHN): −4.45 M
- Log10TGI (ACHN): −4.90 M
- Log10GI50 (SF-539): −11.09 M
- Log10LC50 (SF-539): >−4.00 M
- Log10GI50 (NCI-H322M): −10.12 M
- Log10LC50 (NCI-H322M): >−4.00 M
- Log10TGI (NCI-H322M): −4.46 M
- Log10GI50 (SN12C): −9.53 M
- Log10LC50 (SN12C): >−4.00 M
- Log10GI50 (MOLT-4): −11.07 M
- Log10LC50 (MOLT-4): >−4.00 M
- Log10TGI (MOLT-4): >−4.00 M
- drug concentration necessary to achieve primary growth inhibition (percentage growth +50) (MOLT-4; MOLT-4, read from dose response curves FIGS. 10a-10e): less than 10^−8 molar
- Log10GI50 (HT29): <−13.00 M
- Log10LC50 (HT29): −4.39 M
- Log10GI50 (SW-620): −11.60 M
- Log10LC50 (SW-620): >−4.00 M
- Log10TGI (SW-620): >−4.00 M
- Log10GI50 (BT-549): −9.31 M
- Log10LC50 (BT-549): >−4.00 M
- Log10TGI (BT-549): −6.32 M
- Log10GI50 (NCI-H460): −12.16 M
- Log10LC50 (NCI-H460): >−4.00 M
- Log10TGI (NCI-H460): −4.92 M
- Log10GI50 (SK-MEL-2): −9.53 M
- Log10LC50 (SK-MEL-2): >−4.00 M
- Log10GI50 (SNB-19): −8.98 M
- Log10LC50 (SNB-19): >−4.00 M
- Log10TGI (SNB-19): >−4.00 M
- Log10LC50 (MALME-3M): −4.11 M
- Log10TGI (MALME-3M): −4.46 M
- Log10GI50 (OVCAR-5): −9.38 M
- Log10LC50 (OVCAR-5): >−4.00 M
- Log10TGI (OVCAR-5): −4.92 M
- Log10GI50 (U251): −11.29 M
- Log10LC50 (U251): −4.15 M
- Log10TGI (U251): −4.32 M
- Log10GI50 (OVCAR-8): −10.75 M
- Log10LC50 (OVCAR-8): >−4.00 M
- Log10GI50 (IGROVI): −8.61 M
- Log10LC50 (IGROVI): >−4.00 M
- Log10TGI (IGROVI): −4.19 M

SMILES: COC1OC2(C)CCC3CCCC(CCOCCC4CCCC5CCC6(C)OOC45C(OC)O6)C31OO2 (stereo not shown) [Compound 6, Trioxane Ether Dimer]
- Log10GI50 (RPMI-8226): −6.69 M
- Log10LC50 (RPMI-8226): >−4.00 M
- Log10TGI (RPMI-8226): −5.47 M
- Log10GI50 (HL-60(TB)): −6.48 M
- Log10LC50 (HL-60(TB)): >−4.00 M
- Log10TGI (HL-60(TB)): −5.77 M
- Log10GI50 (COLO 205): −6.85 M
- Log10LC50 (COLO 205): −5.77 M
- Log10TGI (COLO 205): −6.36 M
- Log10GI50 (UACC-257): −5.68 M
- Log10LC50 (UACC-257): >−4.00 M
- Log10TGI (UACC-257): >−4.00 M
- Log10GI50 (SF-295): −5.61 M
- Log10LC50 (SF-295): >−4.00 M
- Log10TGI (SF-295): >−4.00 M
- Log10GI50 (ACHN): −5.99 M
- Log10LC50 (ACHN): >−4.00 M
- Log10TGI (ACHN): >−4.00 M
- Log10LC50 (HS 578T): >−4.00 M
- Log10TGI (HS 578T): >−4.00 M
- Log10LC50 (SK-OV-3): >−4.00 M
- Log10TGI (SK-OV-3): >−4.00 M
- Log10GI50 (NCI-H322M): >−4.00 M
- Log10LC50 (NCI-H322M): >−4.00 M
- Log10TGI (NCI-H322M): >−4.00 M
- Log10GI50 (SN12C): −5.46 M
- Log10LC50 (SN12C): >−4.00 M
- Log10TGI (SN12C): >−4.00 M
- Log10GI50 (MOLT-4): −6.27 M
- Log10LC50 (MOLT-4; listed as Ether Dimer): >−4.00 M
- Log10TGI (MOLT-4; listed as Ether Dimer): >−4.00 M
- Log10LC50 (MOLT-4; listed as either dimer): greater than −400. M
- Log10TGI (MOLT-4; listed as ether dimer): 4.50 M
- Log10GI50 (HT29): −6.24 M
- Log10LC50 (HT29): >−4.00 M
- Log10TGI (HT29): >−4.00 M
- Log10GI50 (SW-620): −6.66 M
- Log10LC50 (SW-620): >−4.00 M
- Log10TGI (SW-620): >−4.00 M
- Log10GI50 (BT-549): −5.89 M
- Log10LC50 (BT-549): >−4.00 M
- Log10TGI (BT-549): >−4.00 M
- Log10GI50 (NCI-H226): −5.36 M
- Log10LC50 (NCI-H226): >−4.00 M
- Log10TGI (NCI-H226): >−4.00 M
- Log10GI50 (NCI-H460): −6.23 M
- Log10LC50 (NCI-H460): >−4.00 M
- Log10TGI (NCI-H460): >−4.00 M
- antiproliferative activity [1]: the most antiproliferative
- Log10GI50 (SK-MEL-2): −5.86 M
- Log10LC50 (SK-MEL-2): >−4.00 M
- Log10TGI (SK-MEL-2): −4.13 M
- Log10LC50 (SNB-75): >−4.00 M
- Log10TGI (SNB-75): >−4.00 M
- Log10GI50 (SNB-19): −5.01 M
- Log10LC50 (SNB-19): >−4.00 M
- Log10TGI (SNB-19): >−4.00 M
- Log10LC50 MG MID (60 cell line panel): −4.05 M
- Log10TGI MG MID (60 cell line panel): −4.26 M
- Log10GI50 (MALME-3M): −5.69 M
- Log10LC50 (MALME-3M): >−4.00 M
- Log10TGI (MALME-3M): >−4.00 M
- Log10GI50 (OVCAR-5): −6.39 M
- Log10LC50 (OVCAR-5): >−4.00 M
- Log10TGI (OVCAR-5): >−4.00 M
- Log10GI50 (U251): −6.35 M
- Log10LC50 (U251): >−4.00 M
- Log10TGI (U251): >−4.00 M
- Log10GI50 (OVCAR-8): −6.33 M
- Log10LC50 (OVCAR-8): >−4.00 M
- Log10TGI (OVCAR-8): >−4.00 M
- Log10GI50 (IGROVI): −5.37 M
- Log10LC50 (IGROVI): >−4.00 M
- Log10TGI (IGROVI): −4.13 M
